According to patent US4258184A, “Cephalosporin derivatives” (Meiji Seika Kaisha Ltd., priority 1976, dated 1981):
Converted amounts (≈) assume the structure as drawn. Like-named read-outs stand apart in the source and are kept apart here.

How the values were obtained:
[1] = tested on: Bacillus subtilis ATCC 6633; test: Minimum prohibiting concentration by agar plate dilution method; format: cell-based
Description: (§1) Minimum prohibiting concentration (γ/ml)
(§2) by means of agar plate dilution method

[2] = tested on: Enterobacter species C73-17; test: as above; format: cell-based
Description: as §1, §2

Escherichia coli C73-1 = test: as above; format: cell-based
Description: as §1, §2

[3] = tested on: Escherichia coli K-12 IAM 1264; test: as above; format: cell-based; details: IAM1264, Table 1
Description: as §1, §2

[4] = tested on: Escherichia coli NIHJ JC-2; test: as above; format: cell-based
Description: as §1, §2

Proteus species C73-25 = test: as above; format: cell-based; details: read-out: Minimum prohibiting concentration
Description: as §1, §2

Proteus species C73-34 = test: as above; format: cell-based; details: read-out: Minimum prohibiting concentration
Description: as §1, §2

[5] = tested on: Pseudomonas aeruginosa IAM 1007; test: as above; format: cell-based
Description: as §1, §2

[6] = tested on: Pseudomonas species C73-2; test: as above; format: cell-based; details: C732, Table 1
Description: as §1, §2

[7] = tested on: Pseudomonas species C73-83; test: as above; format: cell-based
Description: as §1, §2

Serratia species MS-2 = test: as above; format: cell-based
Description: as §1, §2

Serratia species No. 2 = test: as above; format: cell-based
Description: as §1, §2

[8] = tested on: Staphylococcus aureus 209p JC-1; test: as above; format: cell-based; details: read-out: Minimum prohibiting concentration
Description: as §1, §2

[9] = tested on: Staphylococcus aureus No. 26; test: as above; format: cell-based
Description: as §1, §2

[10] = tested on: Vibrio parahaemolyticus K-7; test: as above; format: cell-based
Description: as §1, §2

Proteus morganii Kono = test: Minimum prohibiting/inhibition concentration by agar plate dilution method; format: cell-based; details: Morganella morganii
Description: as §1, §2
(§3) Minimum inhibition concentration (γ/ml) by means
(§4) of agar plate dilution method

[11] = tested on: Salmonella enteriditis No. 11; test: as above; format: cell-based
Description: as §1, §2, §3, §4

Salmonella typhi O-901-W = test: as above; format: cell-based; details: Salmonella enterica
Description: as §1, §2, §3, §4

[12] = tested on: Staphylococcus aureus Smith S-424; test: as above; format: cell-based
Description: as §1, §2, §3, §4

[13] = tested on: Vibrio parahaemolyticus K-5; test: as above; format: cell-based
Description: as §1, §2, §3, §4

Klebsiella pneumoniae = test: Minimum inhibition concentration by agar plate dilution method; format: cell-based; details: Table 2
Description: as §3, §4

[14] = tested on: Staphylococcus aureus Smith No. 26; test: as above; format: cell-based; details: read-out: Minimum inhibition concentration
Description: as §3, §4

[15] = Toxicity, peritoneal administration to mice; format: in vivo; details: 6 mice, administered peritoneally, dosage amount of 200 mg/l kg
Description: The toxicity of the compounds according to this invention is excellently low. […] As is clear from above, the compounds according to this invention are not only low in toxicity and excellent in anti-biotic activity but also have a prolonged action after administration. Therefore, they show excellent infection cure effect and infection-defense effect in before-or after-administration and in less dosage in comparison with known cephalosporin derivatives, for example, cephalothin, cefazolin or cephaloridine.

[16] = ATCC6633, Table 1, agar plate dilution method, Bacillus subtilis ATCC 6633, read-out: Minimum prohibiting concentration
[17] = C7317, Table 1, agar plate dilution method, Enterobacter species C73-17, read-out: Minimum prohibiting concentration
[18] = C731, Table 1, agar plate dilution method, Escherichia coli C73-1, read-out: Minimum prohibiting concentration
[19] = Escherichia coli, NIHJJC2, read-out: Minimum prohibiting concentration
[20] = Table 1, agar plate dilution method, Proteus species C73-25
[21] = Table 1, agar plate dilution method, Proteus species C73-34
[22] = IAM1007, Table 1, agar plate dilution method, Pseudomonas aeruginosa IAM 1007, read-out: Minimum prohibiting concentration
[23] = C7383, Table 1, agar plate dilution method, Pseudomonas species C73-83, read-out: Minimum prohibiting concentration
[24] = Serratia, MS2, read-out: Minimum prohibiting concentration
[25] = Table 1, agar plate dilution method, Serratia species No. 2, read-out: Minimum prohibiting concentration
[26] = Table 1, agar plate dilution method, Staphylococcus aureus 209p JC-1
[27] = Table 1, agar plate dilution method, Staphylococcus aureus No. 26, read-out: Minimum prohibiting concentration
[28] = K7, Table 1, agar plate dilution method, Vibrio parahaemolyticus K-7, read-out: Minimum prohibiting concentration
[29] = read-out: Minimum inhibition concentration
[30] = read-out: Minimum prohibiting concentration
[31] = Table 1, agar plate dilution method, Salmonella enteriditis No. 11, read-out: Minimum prohibiting concentration
[32] = Table 2, agar plate dilution method, Salmonella enteritidis N0. 11, read-out: Minimum inhibition concentration
[33] = SMITHS424, Table 1, agar plate dilution method, Staphylococcus aureus Smith S-424, read-out: Minimum prohibiting concentration
[34] = K5, Table 1, agar plate dilution method, Vibrio parahaemolyticus K-5, read-out: Minimum prohibiting concentration
[35] = K5, Table 2, agar plate dilution method, Vibrio parahaemolyticus K-5, read-out: Minimum inhibition concentration
[36] = Table 2, agar plate dilution method, Staphylococcus aureus Smith No. 26
[37] = NIHJJC2, Table 1, agar plate dilution method, Escherichia coli NIHJ JC-2, read-out: Minimum prohibiting concentration
[38] = MS2, Table 1, agar plate dilution method, Serratia species MS-2, read-out: Minimum prohibiting concentration
[39] = Staphylococcus aureus, NO.26, read-out: Minimum prohibiting concentration
[40] = Table 1, agar plate dilution method, Proteus morganii Kono, read-out: Minimum prohibiting concentration
[41] = Salmonella, NO.11, read-out: Minimum prohibiting concentration
[42] = Table 2, agar plate dilution method, Proteus morganii Kono, read-out: Minimum inhibition concentration

SMILES	MIC [1, 16]	MIC [2, 17]	MIC (Escherichia coli C73-1; [18])	MIC [3]	MIC [4, 19]	MIC (Proteus species C73-25; [20])	MIC (Proteus species C73-34; [21])	MIC [5, 22]	MIC [6]	MIC [7, 23]	MIC (Serratia species MS-2; [24])	MIC (Serratia species No. 2; [25])	MIC [8, 26]	MIC [10, 28]	MIC (Salmonella typhi O-901-W; [29])	MIC (Salmonella typhi O-901-W; [30])	MIC [12, 33]	MIC [13, 34]	MIC [13, 35]	MIC (Klebsiella pneumoniae)	further results
CC1(C)S[C@@H]2[C@H](NC(=O)C(C(=O)O)c3ccccc3)C(=O)N2[C@H]1C(=O)O (some centres unmarked) [Carbenicillin disodium, reference compound]	0.39 µg/mL	> 100 µg/mL	25 µg/mL	12.5 µg/mL	12.5 µg/mL	50 µg/mL	50 µg/mL	> 100 µg/mL	> 100 µg/mL	> 100 µg/mL	12.5 µg/mL	50 µg/mL	0.39 µg/mL	50 µg/mL	12.5 µg/mL	12.5 µg/mL	0.39 µg/mL	> 100 µg/mL	> 100 µg/mL	25 µg/mL	MIC [9, 27]: 25 µg/mL; MIC (Proteus morganii Kono; [29]): 12.5 µg/mL; MIC (Proteus morganii Kono; [30]): 12.5 µg/mL; MIC [11, 31]: 50 µg/mL; MIC [11, 32]: 50 µg/mL; MIC [14, 36]: 25 µg/mL
Cc1nnc(SCC2=C(C(=O)O)N3C(=O)[C@@H](NC(=O)Cn4cnnn4)[C@H]3SC2)s1 [Cefazolin Na, reference compound]	0.2 µg/mL (≈ 0.44 µM)	50 µg/mL (≈ 110 µM)	6.25 µg/mL (≈ 13.8 µM)	3.13 µg/mL (≈ 6.89 µM)	–	–	12.5 µg/mL (≈ 27.5 µM)	> 100 µg/mL	> 100 µg/mL	> 100 µg/mL	–	> 100 µg/mL	0.1 µg/mL (≈ 0.22 µM)	12.5 µg/mL (≈ 27.5 µM)	–	3.13 µg/mL (≈ 6.89 µM)	0.78 µg/mL (≈ 1.72 µM)	6.25 µg/mL (≈ 13.8 µM)	–	–	MIC [4, 37]: 6.25 µg/mL (≈ 13.8 µM); MIC (Proteus species C73-25): 3.13 µg/mL (≈ 6.89 µM); MIC (Serratia species MS-2; [38]): > 100 µg/mL; MIC [9, 39]: 3.13 µg/mL (≈ 6.89 µM); MIC (Proteus morganii Kono; [40]): > 100 µg/mL; MIC [11, 41]: 3.13 µg/mL (≈ 6.89 µM)
Cc1ccc(-c2ccc(C(=O)N[C@@H](C(=O)NC3C(=O)N4C(C(=O)O)=C(CSc5nnc(C(N)=O)s5)CS[C@H]34)c3ccccc3)c(O)n2)cc1 (stereo partly drawn) [Example 2, 7-{D(-)-α-[2-hydroxy-6-(p-tolyl)pyridine-3-carbonylamino]phenylacetamido}-3-(5-carbamoyl-1,3,4-thiadiazol-2-ylthiomethyl)-3-cephem-4-carboxylic acid]	1.56 µg/mL (≈ 2.17 µM)	50 µg/mL (≈ 69.7 µM)	25 µg/mL (≈ 34.8 µM)	6.25 µg/mL (≈ 8.71 µM)	–	25 µg/mL (≈ 34.8 µM)	12.5 µg/mL (≈ 17.4 µM)	100 µg/mL (≈ 139 µM)	100 µg/mL (≈ 139 µM)	100 µg/mL (≈ 139 µM)	–	100 µg/mL (≈ 139 µM)	0.78 µg/mL (≈ 1.09 µM)	12.5 µg/mL (≈ 17.4 µM)	–	3.13 µg/mL (≈ 4.36 µM)	0.78 µg/mL (≈ 1.09 µM)	25 µg/mL (≈ 34.8 µM)	–	–	MIC [4, 37]: 25 µg/mL (≈ 34.8 µM); MIC (Serratia species MS-2; [38]): 50 µg/mL (≈ 69.7 µM); MIC [9, 27]: 6.25 µg/mL (≈ 8.71 µM); MIC (Proteus morganii Kono; [40]): 100 µg/mL (≈ 139 µM); MIC [11, 31]: 0.39 µg/mL (≈ 0.543 µM); mortality [15]: any mouse did not die
Cc1ccc(-c2ccc(C(=O)N[C@@H](C(=O)NC3C(=O)N4C(C(=O)[O-])=C(CSc5nnc(C(N)=O)s5)CS[C@H]34)c3ccc(O)cc3)c(O)n2)cc1.[Na+] (stereo partly drawn) [Example 8, sodium 7-{D(-)-α-[2-hydroxy-6-(p-tolyl)pyridine-3-carbonylamino]-p-hydroxyphenylacetamido}-3-(5-carbamoyl-1,3,4-thiadiazol-2-ylthiomethyl)-3-cephem-4-carboxylate]	–	–	–	1.56 µg/mL	12.5 µg/mL	–	–	–	50 µg/mL	–	50 µg/mL	–	–	–	–	1.56 µg/mL	–	–	–	–	MIC ([1]; Bacillus subtilis, ATCC6633, read-out: Minimum prohibiting concentration): 0.78 µg/mL; MIC ([2]; Enterobacter, C7317, read-out: Minimum prohibiting concentration): 12.5 µg/mL; MIC (Escherichia coli C73-1; Escherichia coli, C731, read-out: Minimum prohibiting concentration): 6.25 µg/mL; MIC (Proteus species C73-25): 50 µg/mL; MIC (Proteus species C73-34): 12.5 µg/mL; MIC ([5]; Pseudomonas aeruginosa, IAM1007, read-out: Minimum prohibiting concentration): 100 µg/mL; MIC ([7]; Pseudomonas, C7383, read-out: Minimum prohibiting concentration): 100 µg/mL; MIC (Serratia species No. 2; Serratia, NO.2, read-out: Minimum prohibiting concentration): 50 µg/mL; MIC ([8]; Staphylococcus aureus, 209P): 0.2 µg/mL; MIC [9, 39]: 3.13 µg/mL; MIC ([10]; Vibrio parahaemolyticus, K7, read-out: Minimum prohibiting concentration): 3.13 µg/mL; MIC (Proteus morganii Kono; [30]): 25 µg/mL; MIC [11, 41]: 0.78 µg/mL; MIC ([12]; Staphylococcus aureus, SMITHS424, read-out: Minimum prohibiting concentration): 0.39 µg/mL; MIC ([13]; Vibrio parahaemolyticus, K5, read-out: Minimum prohibiting concentration): 3.13 µg/mL
Cc1ccc(-c2ccc(C(=O)N[C@@H](C(=O)NC3C(=O)N4C(C(=O)O)=C(CSc5nnnn5C)CS[C@H]34)c3ccc(O)cc3)c(O)n2)cc1 (stereo partly drawn) [Example 56, 7-{D-(-)-α-[2-hydroxy-6-(p-tolyl)pyridine-3-carbonylamino]-p-hydroxyphenylacetamido}-3-(1-methyl-1,2,3,4-tetrazole-5-ylthiomethyl)-3-cephem-4-carboxylic acid]	–	–	–	–	–	–	–	–	–	–	–	–	–	–	1.56 µg/mL (≈ 2.26 µM)	–	–	–	25 µg/mL (≈ 36.3 µM)	25 µg/mL (≈ 36.3 µM)	MIC (Proteus morganii Kono; [42]): 12.5 µg/mL (≈ 18.1 µM); MIC [11, 29]: 1.56 µg/mL (≈ 2.26 µM); MIC ([12]; Staphylococcus aureus, SMITHS424, read-out: Minimum inhibition concentration): 1.56 µg/mL (≈ 2.26 µM); MIC ([14]; Staphylococcus aureus): 6.25 µg/mL (≈ 9.07 µM)
Cc1ccc(-c2ccc(C(=O)N[C@@H](C(=O)NC3C(=O)N4C(C(=O)O)=C(CSc5nnnn5C)CS[C@H]34)c3ccccc3)c(O)n2)cc1 (stereo partly drawn) [Example 57, 7-{D-(-)-α-[2-hydroxy-6-(p-tolyl)pyridine-3-carbonylamino]-phenylacetamido}-3-(1-methyl-1,2,3,4-tetrazole-5-ylthiomethyl)-3-cephem-4-carboxylicacid]	–	–	–	–	–	–	–	–	–	–	–	–	–	–	6.25 µg/mL (≈ 9.29 µM)	–	–	–	25 µg/mL (≈ 37.2 µM)	50 µg/mL (≈ 74.3 µM)	MIC (Proteus morganii Kono; [42]): 100 µg/mL (≈ 149 µM); MIC [11, 32]: 3.13 µg/mL (≈ 4.65 µM); MIC ([12]; SMITHS424, Table 2, agar plate dilution method, Staphylococcus aureus Smith S-424, read-out: Minimum inhibition concentration): 12.5 µg/mL (≈ 18.6 µM); MIC [14, 36]: 50 µg/mL (≈ 74.3 µM)
